System: 485368-065-R3-J5-PDC spheroids with HUVEC/MSC, viability
Test: Anticancer human tumor 485368-065-R3-J5-PDC patient-derived pancreatic carcinoma cell line growth inhibition [RAS]
Settings: for IC50: curve of first compound; for viability, T/C: stronger effect = lower value
Method in brief: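 Multi-cell-type spheroids: tumor cells plus HUVEC endothelial cells and mesenchymal stem cells. RAS-pathway inhibitors were combined with targeted agents, each dosed in half-log steps down from clinical Cmax, or from 10 microM when Cmax was unknown.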

[1] = second compound 0.000949 µM, first compound 0.000316 µM
[2] = second compound 0.000949 µM, first compound 0.001 µM
[3] = second compound 0.000949 µM, first compound 0.00316 µM
[4] = second compound 0.000949 µM, first compound 0.01 µM
[5] = second compound 0.000949 µM, first compound 0.0316 µM
[6] = second compound 0.000949 µM, first compound 0.1 µM
[7] = second compound 0.003 µM, first compound 0.000316 µM
[8] = second compound 0.003 µM, first compound 0.001 µM
[9] = second compound 0.003 µM, first compound 0.00316 µM
[10] = second compound 0.003 µM, first compound 0.01 µM
[11] = second compound 0.003 µM, first compound 0.0316 µM
[12] = second compound 0.003 µM, first compound 0.1 µM
[13] = second compound 0.00949 µM, first compound 0.000316 µM
[14] = second compound 0.00949 µM, first compound 0.001 µM
[15] = second compound 0.00949 µM, first compound 0.00316 µM
[16] = second compound 0.00949 µM, first compound 0.01 µM
[17] = second compound 0.00949 µM, first compound 0.0316 µM
[18] = second compound 0.00949 µM, first compound 0.1 µM
[19] = second compound 0.03 µM, first compound 0.000316 µM
[20] = second compound 0.03 µM, first compound 0.001 µM
[21] = second compound 0.03 µM, first compound 0.00316 µM
[22] = second compound 0.03 µM, first compound 0.01 µM
[23] = second compound 0.03 µM, first compound 0.0316 µM
[24] = second compound 0.03 µM, first compound 0.1 µM
[25] = second compound 0.0949 µM, first compound 0.000316 µM
[26] = second compound 0.0949 µM, first compound 0.001 µM
[27] = second compound 0.0949 µM, first compound 0.00316 µM
[28] = second compound 0.0949 µM, first compound 0.01 µM
[29] = second compound 0.0949 µM, first compound 0.0316 µM
[30] = second compound 0.0949 µM, first compound 0.1 µM
[31] = second compound 0.3 µM, first compound 0.000316 µM
[32] = second compound 0.3 µM, first compound 0.001 µM
[33] = second compound 0.3 µM, first compound 0.00316 µM
[34] = second compound 0.3 µM, first compound 0.01 µM
[35] = second compound 0.3 µM, first compound 0.0316 µM
[36] = second compound 0.3 µM, first compound 0.1 µM
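Further: spheroids exposed to agents for seven days before readout.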

In the case of `CC(C)n1nc(-c2ccc3oc(N)nc3c2)c2c(N)ncnc21` + CCn1c(-c2cccnc2C(C)OC)c2c3cc(ccc31)N1CCOC(CC(NC(=O)C(C(C)C)N(C)C(=O)C3(F)CCN(C(=O)C#CC(C)(C)N(C)C)CC3)C(=O)N3CCCC(N3)C(=O)OCC(C)(C)C2)C1, the IC50 (second compound 0.000949 µM) is reported as 0.0217 µM, the IC50 (second compound 0.003 µM) is reported as 0.0191 µM and the IC50 (second compound 0.00949 µM) is reported as 0.0199 µM. It also gave an IC50 (second compound 0.03 µM) of 0.0217 µM, an IC50 (second compound 0.0949 µM) of 0.0212 µM and an IC50 (second compound 0.3 µM) of 0.0256 µM. The viability, T/C [1] was 93.8%, the viability, T/C [2] was 107% and the viability, T/C [3] was 84.2%. For the same compound, the viability, T/C [4] was 73.4%, the viability, T/C [5] was 38.8% and the viability, T/C [6] was 21.2%. The viability, T/C [7] was 97.6%, the viability, T/C [8] was 97.3% and the viability, T/C [9] was 85.6%. It also gave a viability, T/C [10] of 66.8%, a viability, T/C [11] of 37.2% and a viability, T/C [12] of 19.4%. The viability, T/C [13] was 88.2%, the viability, T/C [14] was 115% and the viability, T/C [15] was 85.9%. For the same compound, the viability, T/C [16] was 66.6%, the viability, T/C [17] was 40.2% and the viability, T/C [18] was 19.4%. The viability, T/C [19] was 92%, the viability, T/C [20] was 96.3% and the viability, T/C [21] was 96.2%. The viability, T/C [22] was 78.1%, the viability, T/C [23] was 36.4% and the viability, T/C [24] was 22.1%. It also gave a viability, T/C [25] of 89.3%, a viability, T/C [26] of 98.2% and a viability, T/C [27] of 96.6%. The viability, T/C [28] was 69.1%, the viability, T/C [29] was 40.3% and the viability, T/C [30] was 19.5%. The viability, T/C [31] was 97.3%, the viability, T/C [32] was 99.4% and the viability, T/C [33] was 86.9%. For the same compound, the viability, T/C [34] was 75%, the viability, T/C [35] was 43.9% and the viability, T/C [36] was 22.4%.

`C=CC(=O)Nc1cc(Nc2nccc(-c3cn(C)c4ccccc34)n2)c(OC)cc1N(C)CCN(C)C` + C=CC(=O)N1CCN(c2nc(OCC3CCCN3C)nc3c(F)c(-c4nc(N)cc(C)c4C(F)(F)F)c(Cl)cc23)C(C)C1 gave an IC50 (second compound 0.00316 µM) greater than 1 µM, an IC50 (second compound 0.01 µM) greater than 1 µM and an IC50 (second compound 0.0316 µM) greater than 1 µM. It also gave an IC50 (second compound 0.1 µM) greater than 1 µM, an IC50 (second compound 0.316 µM) greater than 1 µM and an IC50 (second compound 1 µM) greater than 1 µM. It also gave a viability, T/C (second compound 0.00316 µM, first compound 0.00316 µM) of 103%, a viability, T/C (second compound 0.00316 µM, first compound 0.01 µM) of 89.9% and a viability, T/C (second compound 0.00316 µM, first compound 0.0316 µM) of 104%. It also gave a viability, T/C (second compound 0.00316 µM, first compound 0.1 µM) of 104%, a viability, T/C (second compound 0.00316 µM, first compound 0.316 µM) of 108% and a viability, T/C (second compound 0.00316 µM, first compound 1 µM) of 97.1%. For the same compound, the viability, T/C (second compound 0.01 µM, first compound 0.00316 µM) was 105%, the viability, T/C (second compound 0.01 µM, first compound 0.01 µM) was 96.9% and the viability, T/C (second compound 0.01 µM, first compound 0.0316 µM) was 94.8%. For the same compound, the viability, T/C (second compound 0.01 µM, first compound 0.1 µM) was 100%, the viability, T/C (second compound 0.01 µM, first compound 0.316 µM) was 115% and the viability, T/C (second compound 0.01 µM, first compound 1 µM) was 89.5%. For the same compound, the viability, T/C (second compound 0.0316 µM, first compound 0.00316 µM) was 100%, the viability, T/C (second compound 0.0316 µM, first compound 0.01 µM) was 98.9% and the viability, T/C (second compound 0.0316 µM, first compound 0.0316 µM) was 99.4%. The viability, T/C (second compound 0.0316 µM, first compound 0.1 µM) was 109%, the viability, T/C (second compound 0.0316 µM, first compound 0.316 µM) was 108% and the viability, T/C (second compound 0.0316 µM, first compound 1 µM) was 94.1%. The viability, T/C (second compound 0.1 µM, first compound 0.00316 µM) was 99.8%, the viability, T/C (second compound 0.1 µM, first compound 0.01 µM) was 98.6% and the viability, T/C (second compound 0.1 µM, first compound 0.0316 µM) was 99.7%. The viability, T/C (second compound 0.1 µM, first compound 0.1 µM) was 103%, the viability, T/C (second compound 0.1 µM, first compound 0.316 µM) was 100% and the viability, T/C (second compound 0.1 µM, first compound 1 µM) was 85%. The viability, T/C (second compound 0.316 µM, first compound 0.00316 µM) was 98%, the viability, T/C (second compound 0.316 µM, first compound 0.01 µM) was 93.1% and the viability, T/C (second compound 0.316 µM, first compound 0.0316 µM) was 111%. The viability, T/C (second compound 0.316 µM, first compound 0.1 µM) was 119%, the viability, T/C (second compound 0.316 µM, first compound 0.316 µM) was 117% and the viability, T/C (second compound 0.316 µM, first compound 1 µM) was 87.8%. The viability, T/C (second compound 1 µM, first compound 0.00316 µM) was 106%, the viability, T/C (second compound 1 µM, first compound 0.01 µM) was 96.8% and the viability, T/C (second compound 1 µM, first compound 0.0316 µM) was 110%. For the same compound, the viability, T/C (second compound 1 µM, first compound 0.1 µM) was 112%, the viability, T/C (second compound 1 µM, first compound 0.316 µM) was 106% and the viability, T/C (second compound 1 µM, first compound 1 µM) was 87.8%.

In the case of `CC(C)n1nc(-c2ccc3oc(N)nc3c2)c2c(N)ncnc21` + CCn1c(-c2cc(N3CCN(C)CC3)cnc2C(C)OC)c2c3cc(ccc31)-c1csc(n1)CC(NC(=O)C1CC1C)C(=O)N1CCCC(N1)C(=O)OCC(C)(C)C2, the IC50 (second compound 0.000949 µM) is reported as less than 0.000316 µM, the IC50 (second compound 0.003 µM) is reported as less than 0.000316 µM and the IC50 (second compound 0.00949 µM) is reported as less than 0.000316 µM. It also gave an IC50 (second compound 0.03 µM) of less than 0.000316 µM, an IC50 (second compound 0.0949 µM) of less than 0.000316 µM and an IC50 (second compound 0.3 µM) of less than 0.000316 µM. The viability, T/C [1] was 37.1%, the viability, T/C [2] was 33.2% and the viability, T/C [3] was 25.4%. For the same compound, the viability, T/C [4] was 25.5%, the viability, T/C [5] was 16.9% and the viability, T/C [6] was 14.4%. It also gave a viability, T/C [7] of 23.3%, a viability, T/C [8] of 20.4% and a viability, T/C [9] of 18.3%. The viability, T/C [10] was 15.1%, the viability, T/C [11] was 11.4% and the viability, T/C [12] was 8.13%. For the same compound, the viability, T/C [13] was 19.9%, the viability, T/C [14] was 17.6% and the viability, T/C [15] was 15.4%. It also gave a viability, T/C [16] of 11.2%, a viability, T/C [17] of 7.74% and a viability, T/C [18] of 7.71%. It also gave a viability, T/C [19] of 13.6%, a viability, T/C [20] of 12.3% and a viability, T/C [21] of 11.5%. The viability, T/C [22] was 10.1%, the viability, T/C [23] was 8.37% and the viability, T/C [24] was 6.86%. The viability, T/C [25] was 9.34%, the viability, T/C [26] was 9.41% and the viability, T/C [27] was 9.4%. For the same compound, the viability, T/C [28] was 8.96%, the viability, T/C [29] was 8.01% and the viability, T/C [30] was 7.66%. It also gave a viability, T/C [31] of 8.85%, a viability, T/C [32] of 9.23% and a viability, T/C [33] of 9.13%. The viability, T/C [34] was 7.72%, the viability, T/C [35] was 8.58% and the viability, T/C [36] was 6.19%.

Reference: PubChem BioAssay AID2060902 (Molecular Pharmacology Branch, DTP, NCI, 2025)
